Data on 3 molecules can be found in ChEMBL document CHEMBL1921677, “Ungeremine effectively targets mammalian as well as bacterial type I and type II topoisomerases” (Bioorg Med Chem Lett, 2011).

≈ marks a conversion by molar mass, not a printed value. Calls of active or inactive are those of the source.

Assay [1] concerns the target T1, DNA topoisomerase 2-alpha (Homo sapiens, UniProt P11388). Kind of assay: Inhibition of human topoisomerase 2alpha-mediated relaxation of supercoiled pBR322 DNA.
For assay [2], the target named is T2, DNA topoisomerase 1 (Homo sapiens) (UniProt P11387).
T2 sequence (whole entry): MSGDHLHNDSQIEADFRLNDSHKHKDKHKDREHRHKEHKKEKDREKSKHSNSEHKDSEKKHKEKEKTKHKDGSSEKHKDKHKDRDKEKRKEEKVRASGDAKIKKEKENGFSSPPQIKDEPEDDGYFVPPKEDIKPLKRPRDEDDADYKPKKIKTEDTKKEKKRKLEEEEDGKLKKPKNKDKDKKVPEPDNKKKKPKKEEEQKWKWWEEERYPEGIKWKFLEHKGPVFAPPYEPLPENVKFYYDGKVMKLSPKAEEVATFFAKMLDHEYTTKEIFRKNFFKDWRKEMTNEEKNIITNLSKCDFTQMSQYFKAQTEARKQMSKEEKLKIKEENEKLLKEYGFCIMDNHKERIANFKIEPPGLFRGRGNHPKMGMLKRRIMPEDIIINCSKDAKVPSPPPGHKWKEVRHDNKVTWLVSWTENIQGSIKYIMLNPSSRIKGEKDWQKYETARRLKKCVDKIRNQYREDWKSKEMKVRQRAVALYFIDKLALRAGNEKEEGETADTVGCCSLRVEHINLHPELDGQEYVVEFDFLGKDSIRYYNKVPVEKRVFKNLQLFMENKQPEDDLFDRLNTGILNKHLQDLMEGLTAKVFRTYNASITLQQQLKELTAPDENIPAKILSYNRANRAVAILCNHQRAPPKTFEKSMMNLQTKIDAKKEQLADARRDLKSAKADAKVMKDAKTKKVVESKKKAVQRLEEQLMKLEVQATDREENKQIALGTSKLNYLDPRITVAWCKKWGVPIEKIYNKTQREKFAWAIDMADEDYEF
Kind of assay: (§1) Inhibition of human topoisomerase 1-mediated relaxation of supercoiled pBR322 DNA.

The subject of another assay is Nucleic Acid. The experiment in a line: Binding affinity to calf thymus DNA assessed as change in absorption spectra at increasing concentration at pH 8 by UV-Vis spectra analysis. In kind it is nucleic-acid assay. Particulars: Bos taurus.
Another assay addresses T3, DNA topoisomerase 1 (Homo sapiens, UniProt P11387).
T3 sequence (P11387 whole entry): T2 sequence (whole entry)
The assay is described as §1.

The nature of assay [3]: Inhibition of Escherichia coli DNA topoisomerase 4-mediated relaxation of supercoiled pBR322 DNA.
A short description of assay [4]: Inhibition of Escherichia coli DNA topoisomerase 1-mediated relaxation of supercoiled pBR322 DNA.
Assay [5] concerns the target T1, DNA topoisomerase 2-alpha. Kind of assay: Inhibition of human topoisomerase 2alpha kinetoplast DNA decatenation activity assessed as formation of monomeric circle from DNA at pH 8 after 1 hr.
The subject of assay [6] is Escherichia coli. The experiment in a line: Inhibition of Escherichia coli topoisomerase 4 kinetoplast DNA decatenation activity assessed as formation of monomeric circle from DNA at pH 8 after 1 hr.
For assay [7], the system named is Escherichia coli. The experiment in a line: Stabilization of Escherichia coli DNA topoisomerase 1-DNA cleavage complex assessed as cleavage enhancement using 32P-TAACCCTGAAAGATTATGCAATGCGCTTTGGG ssDNA as substrate at 10 to 200 uM at pH 8 after 20 mins by agarose gel electrophoresis relative to control.
The test system of another assay is HL-60. The experiment in a line: Cytotoxicity against human HL60 cells after 72 hrs by MTT assay. In kind it is functional, cell-based. Particulars: HL-60, 72 h. In general terms: Tetrazolium assays rely on reduction of a dye to a coloured formazan, in cell work by metabolically active cells.
In another assay the test system is MCF7. The experiment in a line: Cytotoxicity against human MCF7 cells after 72 hrs by MTT assay. It counts as functional, cell-based. Particulars: MCF7, 72 h.
Assay [8] concerns Staphylococcus epidermidis. Kind of assay: Antibacterial activity against Staphylococcus epidermidis by agar dilution method. It counts as functional. For orientation: In agar dilution the substance is mixed into plates at graded concentrations.
For another assay, the system named is Salmonella typhi. The experiment in a line: Antibacterial activity against Salmonella typhi by agar dilution method. It counts as functional, Salmonella enterica subsp. enterica serovar Typhi. Particulars: Salmonella enterica.

T1 sequence (P11388 whole entry): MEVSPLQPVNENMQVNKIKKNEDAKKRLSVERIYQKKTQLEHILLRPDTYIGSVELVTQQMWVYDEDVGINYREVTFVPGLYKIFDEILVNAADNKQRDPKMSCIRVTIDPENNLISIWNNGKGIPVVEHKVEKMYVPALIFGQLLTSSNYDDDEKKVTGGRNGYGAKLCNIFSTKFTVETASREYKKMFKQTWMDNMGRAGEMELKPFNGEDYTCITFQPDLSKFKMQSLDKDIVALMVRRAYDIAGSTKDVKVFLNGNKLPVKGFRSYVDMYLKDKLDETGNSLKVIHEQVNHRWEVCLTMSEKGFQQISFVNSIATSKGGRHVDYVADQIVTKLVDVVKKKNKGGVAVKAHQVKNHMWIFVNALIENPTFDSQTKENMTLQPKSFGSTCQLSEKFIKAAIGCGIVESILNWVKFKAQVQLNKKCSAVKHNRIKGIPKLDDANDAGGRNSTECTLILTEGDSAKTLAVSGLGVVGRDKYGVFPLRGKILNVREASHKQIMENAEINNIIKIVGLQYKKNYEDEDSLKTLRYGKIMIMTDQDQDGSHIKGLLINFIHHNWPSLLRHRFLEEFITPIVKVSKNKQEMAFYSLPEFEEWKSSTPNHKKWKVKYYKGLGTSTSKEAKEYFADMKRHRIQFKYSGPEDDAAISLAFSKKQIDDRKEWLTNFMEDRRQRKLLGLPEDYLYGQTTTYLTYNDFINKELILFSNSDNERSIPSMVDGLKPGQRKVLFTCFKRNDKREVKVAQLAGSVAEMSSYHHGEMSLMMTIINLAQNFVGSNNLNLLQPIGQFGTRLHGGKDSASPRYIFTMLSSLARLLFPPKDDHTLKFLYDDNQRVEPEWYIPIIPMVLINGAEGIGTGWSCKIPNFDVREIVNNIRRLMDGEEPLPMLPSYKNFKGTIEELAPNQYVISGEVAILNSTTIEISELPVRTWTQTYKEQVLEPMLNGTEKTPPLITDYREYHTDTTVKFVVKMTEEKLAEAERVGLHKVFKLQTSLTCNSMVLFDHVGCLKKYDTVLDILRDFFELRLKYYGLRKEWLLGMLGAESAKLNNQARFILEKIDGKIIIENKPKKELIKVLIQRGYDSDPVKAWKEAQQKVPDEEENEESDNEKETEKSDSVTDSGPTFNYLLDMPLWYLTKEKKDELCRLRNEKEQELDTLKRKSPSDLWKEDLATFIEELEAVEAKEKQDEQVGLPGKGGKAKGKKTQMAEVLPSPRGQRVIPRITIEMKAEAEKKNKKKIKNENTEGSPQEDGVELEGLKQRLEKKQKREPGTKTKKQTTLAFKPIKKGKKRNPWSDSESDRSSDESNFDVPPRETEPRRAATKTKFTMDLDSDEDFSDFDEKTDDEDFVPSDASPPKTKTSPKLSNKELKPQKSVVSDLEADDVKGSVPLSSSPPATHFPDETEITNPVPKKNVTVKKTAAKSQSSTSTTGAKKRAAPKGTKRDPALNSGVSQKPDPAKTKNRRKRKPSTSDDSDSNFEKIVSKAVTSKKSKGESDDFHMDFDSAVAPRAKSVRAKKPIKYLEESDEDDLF

Regarding `O[C@@H]1C=C[C@]23CCN(Cc4cc5c(cc42)OCO5)[C@H]3C1`, the inhibition entry in [1] and in assay [2] was “inactive” each time. For the same molecule, the outcome in the assay on Nucleic Acid was inactive.
For `O[C@H]1[C@H]2c3cc4c(cc3CN3CCC(=C[C@@H]1O)[C@H]23)OCO4`, the inhibition result in assay [1] and in assay [2] was “inactive” in each case. In addition, the outcome with Nucleic Acid was inactive.
Broadly, the IC50 is the concentration needed to halve the response being measured. A lower IC50 goes with inhibition by little substance. As a reminder, the MIC is the smallest concentration in the dilution series that meets the test's criterion for growth inhibition. `[O-]c1cc2c3c(c1)c1cc4c(cc1c[n+]3CC2)OCO4` [UNGEREMINE]: the IC50 in [1] was 25.8 µM; at DNA topoisomerase 1, 6.1 µM; in [3], 7.3 µM; in assay [4], 15 µM; in the assay on HL-60, 1.4 µM; with MCF7, more than 40 µM. Further, in the assay on Nucleic Acid, the outcome was Active. Further, in assay [5], the inhibition result was “Active”. In the assay with Escherichia coli [6], the inhibition result is “inactive”. In addition, in the assay on Escherichia coli [7], the fold change (FC) worked out at 250. Moreover, the results for the MIC (in assay [8]; in the assay with Salmonella typhi) were 31.2 µg/mL (≈ 118 µM) and 125 µg/mL (≈ 471 µM), respectively.
